Experimental data published in ChEMBL document CHEMBL1142006, “Chemistry and biology of mercaptoacetamides as novel histone deacetylase inhibitors” (Bioorg Med Chem Lett, 2005).

Tests used:
[1] = test system: PC-3; test: Antiproliferative activity against PC-3 cancer cells; assay type: functional, cell-based; settings: Homo sapiens
[2] = organism: Homo sapiens; test: Antiproliferative activity against SQ-20B cancer cells; assay type: functional; settings: Cancer cell lines
[3] = test system: MCF7; test: Antiproliferative activity against MCF-7 cancer cell line; assay type: functional, cell-based; settings: Homo sapiens
[4] = test system: HeLa; test: Antiproliferative activity towards human HeLa cancer cells; assay type: functional, cell-based

IC50 [1] | IC50 [3] | IC50 [4] | Compound | IC50 [2]
50 µM | 80 µM |  | O=C(CS)NCCCCCC(=O)Nc1cnc2ccccc2c1 | 100 µM
33 µM | 42 µM | 30 µM | O=C(CS)NCCCCCC(=O)Nc1cccc2cccnc12 | 31 µM
110 µM | 125 µM | 108 µM | CN(C)c1ccc(C(=O)NCCCCCNC(=O)CS)cc1 | 100 µM
100 µM |  | 80 µM | O=C(CS)NCCCCCNC(=O)c1ccc(-c2ccccc2)cc1 | 130 µM
